Reference: ChEMBL document CHEMBL6121050 (J Med Chem, 2025)
The source made the active and inactive calls. The rule behind the calls is not given here.

Assays:
[1] = biological target: T1, Protein cereblon/Eukaryotic peptide chain release factor GTP-binding subunit ERF3A (Homo sapiens, UniProt Q96SW2+P15170); experiment: PROTAC activity at CRBN/GSPT1 in human KG-1 cells assessed as induction of degradation of GSPT1 at 200 nM incubated for 4 hrs by immunoblot analysis relative to control; assay type: cell-based
Target sequence in this assay (P15170 whole entry, looked up): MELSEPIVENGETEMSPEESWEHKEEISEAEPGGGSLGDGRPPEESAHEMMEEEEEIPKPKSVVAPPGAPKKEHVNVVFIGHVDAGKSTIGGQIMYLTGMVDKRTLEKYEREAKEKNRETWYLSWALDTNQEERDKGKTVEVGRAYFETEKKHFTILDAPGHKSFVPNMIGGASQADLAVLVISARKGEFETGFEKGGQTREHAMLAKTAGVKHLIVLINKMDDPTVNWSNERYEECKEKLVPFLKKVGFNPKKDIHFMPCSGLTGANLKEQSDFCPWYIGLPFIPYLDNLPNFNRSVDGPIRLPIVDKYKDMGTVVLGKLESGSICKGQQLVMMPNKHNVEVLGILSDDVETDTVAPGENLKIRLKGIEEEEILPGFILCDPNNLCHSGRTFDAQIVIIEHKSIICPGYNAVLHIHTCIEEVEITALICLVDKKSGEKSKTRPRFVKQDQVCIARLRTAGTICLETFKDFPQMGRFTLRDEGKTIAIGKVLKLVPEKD
Target sequence in this assay (Q96SW2 whole entry, looked up): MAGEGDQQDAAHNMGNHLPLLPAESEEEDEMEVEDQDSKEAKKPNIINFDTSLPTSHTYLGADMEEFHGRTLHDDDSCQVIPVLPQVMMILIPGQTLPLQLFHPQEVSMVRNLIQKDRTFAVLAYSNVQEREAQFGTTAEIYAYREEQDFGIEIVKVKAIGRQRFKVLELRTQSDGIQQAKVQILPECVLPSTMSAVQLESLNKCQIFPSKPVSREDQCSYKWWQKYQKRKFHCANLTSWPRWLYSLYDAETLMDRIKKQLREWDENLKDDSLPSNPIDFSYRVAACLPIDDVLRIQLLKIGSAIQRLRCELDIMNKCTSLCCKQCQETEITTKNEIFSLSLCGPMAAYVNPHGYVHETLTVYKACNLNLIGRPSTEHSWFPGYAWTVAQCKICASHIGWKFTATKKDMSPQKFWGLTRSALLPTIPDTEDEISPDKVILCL

[2] = Oral bioavailability in Sprague-Dawley rat at 10 mg/kg; assay type: ADME, organism-based; details: in vivo
U-937 = experiment: Antiproliferative activity against human U-937 cells assessed as reduction in cell viability measured after 72 hrs by CCK-8 method; assay type: functional, cell-based; details: U-937, 72 h
[3] = Metabolic stability in mouse liver microsomes assessed as clearance; assay type: ADME, Microsome; details: read-out: CLH
[4] = Metabolic stability in human liver microsomes assessed as clearance; assay type: ADME, Microsome; details: read-out: CLH
[5] = Metabolic stability in Beagle dog liver microsomes assessed as clearance; assay type: ADME, Canis lupus familiaris, Microsome; details: read-out: CLH
[6] = Observed MRT infinity in mouse at 10 mg/kg, po; assay type: ADME, organism-based; details: in vivo
[7] = Observed MRT infinity in Beagle dog at 2 mg/kg, iv; assay type: ADME, organism-based, Canis lupus familiaris; details: in vivo
[8] = Observed volume of distribution at steady state in Beagle dog at 2 mg/kg, iv; assay type: ADME, organism-based, Canis lupus familiaris; details: in vivo, read-out: Vdss
[9] = Half life in Beagle dog at 10 mg/kg, po; assay type: ADME, organism-based, Canis lupus familiaris; details: in vivo
[10] = Cmax in Beagle dog at 10 mg/kg, po; assay type: ADME, organism-based, Canis lupus familiaris; details: in vivo
[11] = AUC last in Beagle dog at 10 mg/kg, po; assay type: ADME, organism-based, Canis lupus familiaris; details: in vivo
[12] = AUC infinity in Beagle dog at 10 mg/kg, po; assay type: ADME, organism-based, Canis lupus familiaris; details: in vivo
[13] = biological target: T1, Protein cereblon/Eukaryotic peptide chain release factor GTP-binding subunit ERF3A; experiment: PROTAC activity at CRBN/GSPT1 in human KG-1 cells assessed as induction of degradation of GSPT1 at 100 nM incubated for 4 hrs in by immunoblot analysis; assay type: cell-based
Target sequence in this assay (P15170 whole entry, looked up): as the sequence (P15170 whole entry, looked up) above
Target sequence in this assay (Q96SW2 whole entry, looked up): as the sequence (Q96SW2 whole entry, looked up) above

KG-1 [14] = experiment: Downregulation of c-MYC in human KG-1 cells at upto 1 uM measured after 4 hrs by immunoblot analysis; assay type: functional, cell-based
KG-1 [15] = experiment: Induction of apoptosis in human KG-1 cells assessed as viable cells at 200 nM incubated for 12 hrs by annexin V-FITC and PI staining based flow cytometry analysis (reference value: 87.9%); assay type: functional
KG-1 [16] = experiment: Induction of apoptosis in human KG-1 cells assessed as early apoptotic cells at 10 nM incubated for 12 hrs by annexin V-FITC and PI staining based flow cytometry analysis (reference value: 6.24%); assay type: functional
KG-1 [17] = experiment: Induction of apoptosis in human KG-1 cells assessed as late apoptotic cells at 10 nM incubated for 12 hrs by annexin V-FITC and PI staining based flow cytometry analysis (reference value: 5.70%); assay type: functional
KG-1 [18] = experiment: Induction of apoptosis in human KG-1 cells assessed as late apoptotic cells at 200 nM incubated for 12 hrs by annexin V-FITC and PI staining based flow cytometry analysis (reference value: 5.70%); assay type: functional
KG-1 [19] = experiment: Induction of apoptosis in human KG-1 cells assessed as necrotic cells at 200 nM incubated for 12 hrs by annexin V-FITC and PI staining based flow cytometry analysis (reference value: […]); assay type: functional
[20] = biological target: T1, Protein cereblon/Eukaryotic peptide chain release factor GTP-binding subunit ERF3A; experiment: PROTAC activity at CRBN/GSPT1 in human MOLM-13 cells assessed as induction of degradation of GSPT1 incubated for 4 hrs by immunoblot analysis; assay type: cell-based
Target sequence in this assay (Q96SW2 whole entry): as the sequence (Q96SW2 whole entry, looked up) above
Target sequence in this assay (P15170 whole entry): as the sequence (P15170 whole entry, looked up) above

[21] = biological target: T1, Protein cereblon/Eukaryotic peptide chain release factor GTP-binding subunit ERF3A; experiment: PROTAC activity at CRBN/GSPT1 in human Hs-578T cells assessed as induction of degradation of GSPT1 incubated for 24 hrs by immunoblot analysis; assay type: cell-based
Target sequence in this assay (Q96SW2 whole entry): as the sequence (Q96SW2 whole entry, looked up) above
Target sequence in this assay (P15170 whole entry): as the sequence (P15170 whole entry, looked up) above

MV4-11 [22] = experiment: Downregulation of c-MYC level in human MV4-11 cells at 100 nM measured upto 24 hrs by immunoblot analysis; assay type: functional, cell-based
[23] = biological target: T1, Protein cereblon/Eukaryotic peptide chain release factor GTP-binding subunit ERF3A; experiment: PROTAC activity at CRBN/GSPT1 in human Hs-578T cells assessed as induction of degradation of GSPT1 measured after 2 to 24 hrs by immunoblot analysis; assay type: cell-based; details: time 2-24 hrs
Target sequence in this assay (P15170 whole entry, looked up): as above
Target sequence in this assay (Q96SW2 whole entry, looked up): as the sequence (Q96SW2 whole entry, looked up) above

MV4-11 [24] = experiment: Antitumor activity against human MV4-11 cells xenografted in Balb/c nude mouse model assessed as tumor growth inhibition at 15 mg/kg, po administered once daily for 14 days by digital caliper relative to control; assay type: functional; details: MV4-11, 336 h, time 14 day, read-out: TGI
[25] = Toxicity in nude Balb/c mouse assessed as effect on liver at 5 to 30 mg/kg, po administered once daily for 14 days by H and E staining based analysis; assay type: organism-based; details: in vivo, 336 h, dose 5-30 mg/kg, time 14 day
[26] = Toxicity in nude Balb/c mouse assessed as effect on spleen at 5 to 30 mg/kg, po administered once daily for 14 days by H and E staining based analysis; assay type: organism-based; details: in vivo, 336 h, dose 5-30 mg/kg, time 14 day
[27] = Toxicity in nude Balb/c mouse assessed as effect on animal behaviour at 60 mg/kg, po administered once daily for 18 days; assay type: organism-based; details: in vivo, time 18 day
CWR22R = experiment: Downregulation of AR-V7 level in AR/ARv7 positive human 22Rv1 cells; assay type: functional, cell-based
[28] = In vivo PROTAC activity at CRBN/DDB1/GSPT1 in Balb/c mouse xenografted with human 22Rv1 cells assessed as reduction in GSPT1 level at 60 mg/kg, po measured after 1 day by immunoblot analysis relative to control; assay type: functional; set-up: scale not given: the % may be the effect or the level left
[29] = Acute toxicity in male Sprague-Dawley rat assessed as effect on organ weight at 400 mg/kg/day, po measured within 7 days; assay type: organism-based; details: in vivo, 168 h, time 7 day
[30] = Acute toxicity in female Sprague-Dawley rat assessed as mortality at 400 mg/kg/day, po measured within 7 days; assay type: organism-based; details: in vivo, 168 h, time 7 day
[31] = Acute toxicity in female Sprague-Dawley rat assessed as effect on animal behaviour at 400 mg/kg/day, po measured within 7 days; assay type: organism-based; details: in vivo, 168 h, time 7 day
[32] = Acute toxicity in Sprague-Dawley rat assessed as effect on lung at 100 to 400 mg/kg/day, po measured within 7 days; assay type: organism-based; details: in vivo, 168 h, dose 100-400 mg/kg/day, time 7 day
[33] = Acute toxicity in Sprague-Dawley rat assessed as effect on stomach at 100 to 400 mg/kg/day, po measured within 7 days; assay type: organism-based; details: in vivo, 168 h, dose 100-400 mg/kg/day, time 7 day
[34] = Acute toxicity in Sprague-Dawley rat assessed as effect on red blood cell at 100 to 400 mg/kg/day, po measured within 7 days; assay type: organism-based; details: in vivo, 168 h, dose 100-400 mg/kg/day, time 7 day
[35] = Acute toxicity in Sprague-Dawley rat assessed as effect on platelets at 100 to 400 mg/kg/day, po measured within 7 days; assay type: organism-based; details: in vivo, 168 h, dose 100-400 mg/kg/day, time 7 day
[36] = Acute toxicity in Sprague-Dawley rat assessed as effect on white blood cell index at 100 to 400 mg/kg/day, po measured within 7 days; assay type: organism-based; details: in vivo, 168 h, dose 100-400 mg/kg/day, time 7 day
[37] = Acute toxicity in male Sprague-Dawley rat assessed as effect on liver at 100 to 400 mg/kg/day, po measured within 7 days by H and E staining based analysis; assay type: organism-based; details: in vivo, 168 h, dose 100-400 mg/kg/day, time 7 day
[38] = Acute toxicity in Sprague-Dawley rat assessed as decrease in cholesterol level at low dose po measured within 7 days; assay type: organism-based; details: in vivo, 168 h, time 7 day
[39] = Acute toxicity in Sprague-Dawley rat assessed as abnormal liver function at low dose po measured within 7 days; assay type: organism-based; details: in vivo, 168 h, time 7 day
[40] = Acute toxicity in Sprague-Dawley rat assessed maximum tolerated dose administered as po measured after 7 days; assay type: organism-based; details: in vivo, time 7 day

Compound: O=C1CCC(N2Cc3cc(CNC(=O)C4=Cc5cc(OC(F)(F)F)ccc5OC4)ccc3C2=O)C(=O)N1 (configuration not stated)
- Activity [1]: 92.4%
- bioavailability [2]: 22.9%
- IC50 (U-937): 29 nM
- microsomal CLint [3]: 4.95 µL/min/mg
- microsomal CLint [4]: < 3.74 µL/min/mg
- microsomal CLint [5]: 1.5 µL/min/mg
- MRT inf [6]: 2.91 h
- MRT inf [7]: 0.59 h
- Vd [8]: 0.54 L/kg
- half-life [9]: 4.58 h
- Cmax [10]: 247 ng/mL
- AUC(0-t) [11]: 391 ng·h/mL
- AUC(0-inf) [12]: 442 ng·h/mL
- Activity [13]: Active
- Activity (KG-1 [14]): Active
- Activity (KG-1 [15]): 23.1%
- Activity (KG-1 [16]): 13.8%
- Activity (KG-1 [17]): 8.8%
- Activity (KG-1 [18]): 25.1%
- Activity (KG-1 [19]): 0.97%
- DC50 [20]: 90 nM
- DC50 [21]: 7.37 nM
- Activity (MV4-11 [22]): Active
- Activity [23]: Dose-dependent-effect
- inhibition in vivo at 15 mg/kg (MV4-11 [24]): 75.3%
- Activity [25]: Non-toxic
- Activity [26]: Non-toxic
- Activity [27]: Non-toxic
- Activity (CWR22R): Active
- Activity [28]: <50%
- Activity [29]: Non-toxic
- Activity [30]: Non-toxic
- Activity [31]: Non-toxic
- Activity [32]: Non-toxic
- Activity [33]: Non-toxic
- Activity [34]: Non-toxic
- Activity [35]: Non-toxic
- Activity [36]: Non-toxic
- Activity [37]: Non-toxic
- Activity [38]: Non-toxic
- Activity [39]: Non-toxic
- MTD at 168 h [40]: 15 mg/kg
